Like-named read-outs stand apart in the source and are kept apart here.
What was measured:
Assay type in all cases: in vivo
[1] = system: barnyardgrass (Echinochloa crus-galli); assay: Test D flooded paddy test plant response; details: Flood (flooded paddy test), visual rating on scale 0 to 100 (0 no effect, 100 complete control), 13 to 15 days
Procedure, shortened: (§1)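 Plants at 2-leaf stage in pots flooded 3 cm above soil; compounds applied directly into paddy water, depth kept throughout. After 13-15 days in greenhouse, visual rating against controls on 0-100 scale (100 = complete control).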

rice (Oryza sativa) = assay: Test D flooded paddy test plant response; details: Flood (flooded paddy test), visual rating on scale 0 to 100 (0 no effect, 100 complete control), 13 to 15 days
Procedure, shortened: as §1

[2] = system: small-flower umbrella sedge (Cyperus difformis); assay: Test D flooded paddy test plant response; details: Flood (flooded paddy test), visual rating on scale 0 to 100 (0 no effect, 100 complete control), 13 to 15 days
Procedure, shortened: as §1

[3] = system: ducksalad (Heteranthera limosa); assay: Test D flooded paddy test plant response; details: Flood (flooded paddy test), visual rating on scale 0 to 100 (0 no effect, 100 complete control), 13 to 15 days
Procedure, shortened: as §1

[4] = system: wild buckwheat (Polygonum convolvulus); assay: Test E pre-/postemergence plant response; details: Fallopia convolvulus, scale 0 to 100, read-out: Plant response rating, Buckwheat, Wild; for pest or weed control at 16 g/ha: 16 g ai/ha; for pest or weed control at 31 g/ha: 31 g ai/ha; for pest or weed control at 62 g/ha: 62 g ai/ha; for pest or weed control at 125 g/ha: 125 g ai/ha
Procedure, shortened: (§2)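 Visual scores on a 0–100 scale (100 = complete control) were assigned against untreated controls 7–21 days after treatment in a controlled environment. Compounds, formulated with solvent plus surfactant, were applied to pre-emergence silt-loam sowings or to 1- to 4-leaf plants (2–18 cm) in potting medium.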

[5] = system: oilseed rape (Brassica napus); assay: Test E pre-/postemergence plant response; details: scale 0 to 100, read-out: Plant response rating, Oilseed Rape; for plant injury at 16 g/ha: 16 g ai/ha; for plant injury at 31 g/ha: 31 g ai/ha; for plant injury at 62 g/ha: 62 g ai/ha; for plant injury at 125 g/ha: 125 g ai/ha
Procedure, shortened: as §2

wild oat (Avena fatua) = assay: Test E pre-/postemergence plant response; details: scale 0 to 100, read-out: Plant response rating, Oat, Wild; for pest or weed control at 16 g/ha: 16 g ai/ha; for pest or weed control at 31 g/ha: 31 g ai/ha; for pest or weed control at 62 g/ha: 62 g ai/ha; for pest or weed control at 125 g/ha: 125 g ai/ha
Procedure, shortened: as §2

[6] = system: field violet (Viola arvensis); assay: Test E pre-/postemergence plant response; details: scale 0 to 100, read-out: Plant response rating, Field Violet; for pest or weed control at 16 g/ha: 16 g ai/ha; for pest or weed control at 31 g/ha: 31 g ai/ha; for pest or weed control at 62 g/ha: 62 g ai/ha; for pest or weed control at 125 g/ha: 125 g ai/ha
Procedure, shortened: as §2

[7] = system: green foxtail (Setaria viridis); assay: Test E pre-/postemergence plant response; details: scale 0 to 100, read-out: Plant response rating, Foxtail, Green; for pest or weed control at 16 g/ha: 16 g ai/ha; for pest or weed control at 31 g/ha: 31 g ai/ha; for pest or weed control at 62 g/ha: 62 g ai/ha; for pest or weed control at 125 g/ha: 125 g ai/ha
Procedure, shortened: as §2

[8] = system: speedwell (bird's-eye speedwell, Veronica persica); assay: Test E pre-/postemergence plant response; details: scale 0 to 100, read-out: Plant response rating, Speedwell; for pest or weed control at 16 g/ha: 16 g ai/ha; for pest or weed control at 62 g/ha: 62 g ai/ha; for pest or weed control at 125 g/ha: 125 g ai/ha
Procedure, shortened: as §2

[9] = system: wild mustard (Sinapis arvensis); assay: Test E pre-/postemergence plant response; details: Brassica, scale 0 to 100, read-out: Plant response rating, Mustard, Wild; for pest or weed control at 16 g/ha: 16 g ai/ha; for pest or weed control at 31 g/ha: 31 g ai/ha; for pest or weed control at 62 g/ha: 62 g ai/ha; for pest or weed control at 125 g/ha: 125 g ai/ha
Procedure, shortened: as §2

FC(F)c1cc(-c2ccccc2Oc2ncc(Cl)cn2)on1 [Compound 53, 5-chloro-2-[2-[3-(difluoromethyl)-5-isoxazolyl]phenoxy]pyrimidine]
80: Plant response rating, Ducksalad ([3]; 125 g ai/ha) | Plant response rating, Ducksalad ([3]; 250 g ai/ha)
60%: pest or weed control at 62 g/ha ([6]; pre-emergence, Preemergence) | pest or weed control at 16 g/ha ([8]; post-emergence, Postemergence) | pest or weed control at 31 g/ha ([8]; post-emergence, 31 g ai/ha, Postemergence)
65%: pest or weed control at 31 g/ha ([4]; post-emergence, Postemergence) | pest or weed control at 16 g/ha ([4]; pre-emergence, Preemergence) | pest or weed control at 16 g/ha ([9]; post-emergence, Postemergence)
40: Plant response rating, Ducksalad ([3]; 31 g ai/ha)
80%: plant injury at 62 g/ha ([5]; post-emergence, Postemergence) | plant injury at 125 g/ha ([5]; post-emergence, Postemergence)
95%: pest or weed control at 125 g/ha ([4]; post-emergence, Postemergence) | pest or weed control at 62 g/ha ([8]; post-emergence, Postemergence) | pest or weed control at 62 g/ha ([9]; post-emergence, Postemergence) | pest or weed control at 125 g/ha ([9]; post-emergence, Postemergence)
10%: pest or weed control at 62 g/ha (wild oat (Avena fatua); post-emergence, Postemergence) | pest or weed control at 62 g/ha (wild oat (Avena fatua); pre-emergence, Preemergence) | pest or weed control at 16 g/ha ([7]; post-emergence, Postemergence) | pest or weed control at 31 g/ha ([7]; post-emergence, Postemergence) | pest or weed control at 62 g/ha ([7]; post-emergence, Postemergence) | pest or weed control at 16 g/ha ([7]; pre-emergence, Preemergence) | pest or weed control at 31 g/ha ([7]; pre-emergence, Preemergence)
75: Plant response rating, Sedge, Umbrella ([2]; 250 g ai/ha)
100%: pest or weed control at 31 g/ha ([4]; pre-emergence, Preemergence) | pest or weed control at 62 g/ha ([4]; pre-emergence, Preemergence) | pest or weed control at 125 g/ha ([4]; pre-emergence, Preemergence) | plant injury at 62 g/ha ([5]; pre-emergence, Preemergence) | plant injury at 125 g/ha ([5]; pre-emergence, Preemergence) | pest or weed control at 125 g/ha ([6]; pre-emergence, Preemergence) | pest or weed control at 125 g/ha ([8]; post-emergence, Postemergence) | pest or weed control at 16 g/ha ([8]; pre-emergence, Preemergence) | pest or weed control at 62 g/ha ([8]; pre-emergence, Preemergence) | pest or weed control at 125 g/ha ([8]; pre-emergence, Preemergence) | pest or weed control at 31 g/ha ([9]; pre-emergence, Preemergence) | pest or weed control at 62 g/ha ([9]; pre-emergence, Preemergence) | pest or weed control at 125 g/ha ([9]; pre-emergence, Preemergence)
20%: pest or weed control at 62 g/ha ([7]; pre-emergence, Preemergence)
90%: pest or weed control at 62 g/ha ([4]; post-emergence, Postemergence) | pest or weed control at 16 g/ha ([9]; pre-emergence, Preemergence)
50: Plant response rating, Ducksalad ([3]; 62 g ai/ha)
70%: pest or weed control at 16 g/ha ([4]; post-emergence, Postemergence) | plant injury at 16 g/ha ([5]; post-emergence, Postemergence) | pest or weed control at 62 g/ha ([6]; post-emergence, Postemergence) | pest or weed control at 125 g/ha ([6]; post-emergence, Postemergence)
75%: plant injury at 31 g/ha ([5]; post-emergence, Postemergence) | plant injury at 31 g/ha ([5]; pre-emergence, Preemergence) | pest or weed control at 31 g/ha ([9]; post-emergence, Postemergence)
50%: plant injury at 16 g/ha ([5]; pre-emergence, Preemergence) | pest or weed control at 31 g/ha ([6]; post-emergence, Postemergence) | pest or weed control at 16 g/ha ([6]; pre-emergence, Preemergence)
5%: pest or weed control at 16 g/ha (wild oat (Avena fatua); post-emergence, Postemergence) | pest or weed control at 31 g/ha (wild oat (Avena fatua); post-emergence, Postemergence)
0: Plant response rating, Barnyardgrass ([1]; 31 g ai/ha) | Plant response rating, Barnyardgrass ([1]; 62 g ai/ha) | Plant response rating, Barnyardgrass ([1]; 125 g ai/ha) | Plant response rating, Barnyardgrass ([1]; 250 g ai/ha) | Plant response rating, Rice (rice (Oryza sativa); 31 g ai/ha) | Plant response rating, Rice (rice (Oryza sativa); 62 g ai/ha) | Plant response rating, Rice (rice (Oryza sativa); 125 g ai/ha) | Plant response rating, Rice (rice (Oryza sativa); 250 g ai/ha) | Plant response rating, Sedge, Umbrella ([2]; 31 g ai/ha) | Plant response rating, Sedge, Umbrella ([2]; 62 g ai/ha)
70: Plant response rating, Sedge, Umbrella ([2]; 125 g ai/ha)
55%: pest or weed control at 125 g/ha ([7]; pre-emergence, Preemergence)
25%: pest or weed control at 125 g/ha (wild oat (Avena fatua); post-emergence, Postemergence) | pest or weed control at 125 g/ha (wild oat (Avena fatua); pre-emergence, Preemergence) | pest or weed control at 16 g/ha ([6]; post-emergence, Postemergence) | pest or weed control at 31 g/ha ([6]; pre-emergence, Preemergence) | pest or weed control at 125 g/ha ([7]; post-emergence, Postemergence)
0%: pest or weed control at 16 g/ha (wild oat (Avena fatua); pre-emergence, Preemergence) | pest or weed control at 31 g/ha (wild oat (Avena fatua); pre-emergence, Preemergence)
